Results reported in patent US11213499B1, “Use of 3,3′-diselenodipropionic acid (DSePA) as an anticancer agent” (Secretary, Department of Atomic Energy, priority 2020, dated 2022).

System: human A549 xenograft
Experiment: Anti-tumor effect in human A549 xenograft model
Type: in vivo
Conditions: for mortality: study period of 30 days
Protocol: These xenografts representative of NSCLC and CML respectively are considered to be highly aggressive and resistant to chemotherapy treatment. Therefore, any new chemotherapy agent against these cancers is very much sought. For the experiment, a total of 12 mice bearing A549 or K562 tumors of volume in the range of ˜50 mm^3 were divided into two groups (I & II), each group comprising of six mice. […] The group II was administered DSePA daily dissolved in sterile saline through oral route at a dosage of 1 mg/Kg body weight. The tumor volume and body weight of mice from each group were monitored daily for a total period of 30 days from the day of start. The animals were also checked for mortality if any throughout the study period. The experiment in A549 tumor was repeated three times (n=18 for each group) and the experiment in K562 tumor was repeated two times (n=12 for each group). […] This is the first study to show the anticancer activity of DSePA per se using xenograft model of human lung cancer (A549) and human leukemia (K562) cells in mice. Discovery of the application of the anticancer activity of DSePA is a novel invention in context of its probable usage in treatment for lung and leukemia cancer. More specifically the invention proposes a treatment regime and route of administering DSePA to inhibit the growth of human NSCLC (A549) and CML (K562).
For the optimization of the oral dosage of DSePA, a total of 24 mice bearing A549 or K562 xenograft of volume in the range of ˜50 mm^3 were divided into four groups (I-IV), each group comprising of six mice. […] The groups II, III and IV were administered DSePA dissolved in sterile saline through oral route at the dosage of 1, 2.5 and 5 mg/kg body weight respectively. The administration of DSePA was performed daily for 4 weeks. The tumor volume and body weight of mice from each group were monitored daily for a total period of 30 days from the day of start. The animals were also checked for mortality if any throughout the study period.
Animal maintenance—All animal studies were approved by the Institutional Animal Ethics Committee. Animals were housed under standard conditions (20±2° C., 65-70% humidity, 12 h/12 h day/night cycle, balanced laboratory diet and tap water ad libitum.
Xenograft tumor model-A549 and K562 tumor models were developed by Anticancer Drug Screening Facility of Advanced Centre for Treatment, Research and Education in Cancer (ACTREC), India. Briefly, Male/female NOD-SCID aged 6-7 weeks were housed in the laboratory animal facility of ACTREC. Donor mice carrying K562 or A549 xenografts were developed by injecting 2×10^6 cells in 100 μl of DMEM/RPMI, subcutaneously in their right flank. When tumors attained the size of approximately 2000 mm^3, the animals were sacrificed. Tumors were obtained and further cut into 2-3 mm fragments and implanted subcutaneously in the right flank of 6-7 weeks old recipient SCID mice. Tumors were allowed to grow to a size of approximately 50 mm^3 following which animals were divided into groups of six animals each for evaluation. A fresh DSePA solution was prepared by dissolution in sterile saline before each administration by intraperitoneal/oral route. The tumor efficacy of DSePA was determined by monitoring parameters like tumor volume and T/C. Tumors were assumed spherical and volume was calculated using following equations (1 & 2): […]
Where d1 (mm) and d2 (mm) are diameters measured in two perpendicular planes. T/C is defined as the ratio of the mean tumor volume of DSePA treated groups with the mean tumor volume of control group on the day of observation.

[1] = 1 mg/kg body weight daily oral, day 1
[2] = 1 mg/kg body weight daily oral, day 5
[3] = 1 mg/kg body weight daily oral, day 9
[4] = 1 mg/kg body weight daily oral, day 12
[5] = 1 mg/kg body weight daily oral, day 15
[6] = 1 mg/kg body weight daily oral, day 18
[7] = 1 mg/kg body weight daily oral, day 21
[8] = 1 mg/kg body weight daily oral, day 24
[9] = 1 mg/kg body weight daily oral, day 27
[10] = 1 mg/kg body weight daily oral, day 31
[11] = 2.5 mg/kg body weight daily oral, day 1
[12] = 2.5 mg/kg body weight daily oral, day 5
[13] = 2.5 mg/kg body weight daily oral, day 9
[14] = 2.5 mg/kg body weight daily oral, day 12
[15] = 2.5 mg/kg body weight daily oral, day 15
[16] = 2.5 mg/kg body weight daily oral, day 18
[17] = 2.5 mg/kg body weight daily oral, day 21
[18] = 2.5 mg/kg body weight daily oral, day 24
[19] = 2.5 mg/kg body weight daily oral, day 27
[20] = 2.5 mg/kg body weight daily oral, day 31
[21] = 5 mg/kg body weight daily oral, day 1
[22] = 5 mg/kg body weight daily oral, day 5
[23] = 5 mg/kg body weight daily oral, day 9
[24] = 5 mg/kg body weight daily oral, day 12
[25] = 5 mg/kg body weight daily oral, day 15
[26] = 5 mg/kg body weight daily oral, day 18
[27] = 5 mg/kg body weight daily oral, day 21
[28] = 5 mg/kg body weight daily oral, day 24
[29] = 5 mg/kg body weight daily oral, day 27
[30] = 5 mg/kg body weight daily oral, day 31

SMILES: O=C(O)CC[Se][Se]CCC(=O)O [DSePA, 3,3′-diselenodipropionic acid]
- tumor growth inhibition vs control (1 mg/Kg body weight daily oral, three independent experiments): significantly (P<0.05) inhibited the growth
- overall reduction (relative tumor volume vs tumor control) (1 mg/Kg orally daily, end of study period (30 days), n=18, P=0.0009): ~2 folds
- mortality (1 mg/Kg orally daily, three independent studies): did not show any mortality
- % S (Survival) [1]: 100%
- RTV (Relative Tumor Volume) [1]: 1
- T/C (T (test)/C (control)) [1]: 1
- % S (Survival) [2]: 100%
- RTV (Relative Tumor Volume) [2]: 1.23
- T/C (T (test)/C (control)) [2]: 0.98
- % S (Survival) [3]: 100%
- RTV (Relative Tumor Volume) [3]: 1.64
- T/C (T (test)/C (control)) [3]: 0.98
- % S (Survival) [4]: 100%
- RTV (Relative Tumor Volume) [4]: 1.83
- T/C (T (test)/C (control)) [4]: 0.87
- % S (Survival) [5]: 100%
- RTV (Relative Tumor Volume) [5]: 1.80
- T/C (T (test)/C (control)) [5]: 0.76
- % S (Survival) [6]: 100%
- RTV (Relative Tumor Volume) [6]: 2.36
- T/C (T (test)/C (control)) [6]: 0.71
- % S (Survival) [7]: 100%
- RTV (Relative Tumor Volume) [7]: 2.47
- T/C (T (test)/C (control)) [7]: 0.68
- % S (Survival) [8]: 100%
- RTV (Relative Tumor Volume) [8]: 2.66
- T/C (T (test)/C (control)) [8]: 0.52
- % S (Survival) [9]: 100%
- RTV (Relative Tumor Volume) [9]: 2.94
- T/C (T (test)/C (control)) [9]: 0.47
- % S (Survival) [10]: 100%
- RTV (Relative Tumor Volume) [10]: 3.70
- T/C (T (test)/C (control)) [10]: 0.45
- % S (Survival) [11]: 100%
- RTV (Relative Tumor Volume) [11]: 1
- T/C (T (test)/C (control)) [11]: 1
- % S (Survival) [12]: 100%
- RTV (Relative Tumor Volume) [12]: 0.99
- T/C (T (test)/C (control)) [12]: 0.79
- % S (Survival) [13]: 100%
- RTV (Relative Tumor Volume) [13]: 1.10
- T/C (T (test)/C (control)) [13]: 0.66
- % S (Survival) [14]: 100%
- RTV (Relative Tumor Volume) [14]: 1.25
- T/C (T (test)/C (control)) [14]: 0.59
- % S (Survival) [15]: 100%
- RTV (Relative Tumor Volume) [15]: 1.03
- T/C (T (test)/C (control)) [15]: 0.43
- % S (Survival) [16]: 100%
- RTV (Relative Tumor Volume) [16]: 1.31
- T/C (T (test)/C (control)) [16]: 0.39
- % S (Survival) [17]: 100%
- RTV (Relative Tumor Volume) [17]: 1.40
- T/C (T (test)/C (control)) [17]: 0.38
- % S (Survival) [18]: 100%
- RTV (Relative Tumor Volume) [18]: 1.81
- T/C (T (test)/C (control)) [18]: 0.35
- % S (Survival) [19]: 100%
- RTV (Relative Tumor Volume) [19]: 1.96
- T/C (T (test)/C (control)) [19]: 0.31
- % S (Survival) [20]: 100%
- RTV (Relative Tumor Volume) [20]: 2.84
- T/C (T (test)/C (control)) [20]: 0.35
- % S (Survival) [21]: 100%
- RTV (Relative Tumor Volume) [21]: 1
- T/C (T (test)/C (control)) [21]: 1
- % S (Survival) [22]: 100%
- RTV (Relative Tumor Volume) [22]: 0.94
- T/C (T (test)/C (control)) [22]: 0.75
- % S (Survival) [23]: 100%
- RTV (Relative Tumor Volume) [23]: 1.29
- T/C (T (test)/C (control)) [23]: 0.76
- % S (Survival) [24]: 100%
- RTV (Relative Tumor Volume) [24]: 1.30
- T/C (T (test)/C (control)) [24]: 0.62
- % S (Survival) [25]: 100%
- RTV (Relative Tumor Volume) [25]: 1.19
- T/C (T (test)/C (control)) [25]: 0.50
- % S (Survival) [26]: 100%
- RTV (Relative Tumor Volume) [26]: 2.22
- T/C (T (test)/C (control)) [26]: 0.67
- % S (Survival) [27]: 100%
- RTV (Relative Tumor Volume) [27]: 2.34
- T/C (T (test)/C (control)) [27]: 0.65
- % S (Survival) [28]: 100%
- RTV (Relative Tumor Volume) [28]: 2.94
- T/C (T (test)/C (control)) [28]: 0.57
- % S (Survival) [29]: 100%
- RTV (Relative Tumor Volume) [29]: 2.92
- T/C (T (test)/C (control)) [29]: 0.47
- % S (Survival) [30]: 100%
- RTV (Relative Tumor Volume) [30]: 5.30
- T/C (T (test)/C (control)) [30]: 0.65
- tumor growth inhibition vs control (dosage optimization, 1 mg/kg body weight daily oral for 4 weeks): significantly (P<0.05) inhibited the growth of A549 tumor from day 21 onwards
- tumor growth inhibition vs control (dosage optimization, 2.5 mg/kg body weight daily oral for 4 weeks): significantly (P<0.05) inhibited the growth of A549 tumor from day 21 onwards
- tumor growth inhibition vs control (dosage optimization, 5 mg/kg body weight daily oral, experimental end point (31st day)): did not show any significant suppression of A549 tumor
- mortality (dosage optimization, 1, 2.5 and 5 mg/kg daily oral): did not show any mortality
- T/C achieved (lung model, 1 mg/kg body weight daily oral): ≤ 0.42
- minimum dosage to achieve optimum efficacy (oral daily): 1 mg/kg body weight
